How the values were obtained:
CYP1A2 = molecular target: T1, CYP1A2 (Homo sapiens, UniProt P05177); experiment: CYP inhibition assay in HLM, single concentration; assay type: biochemical; settings: human liver microsomes, probe Phenacetin, n = 3, read-out: % Inhibition (CYP 1A2)
T1 construct: Using HLM as the enzyme source; from tissue; host or cells: human liver microsomes
T1 sequence (P05177 1-516): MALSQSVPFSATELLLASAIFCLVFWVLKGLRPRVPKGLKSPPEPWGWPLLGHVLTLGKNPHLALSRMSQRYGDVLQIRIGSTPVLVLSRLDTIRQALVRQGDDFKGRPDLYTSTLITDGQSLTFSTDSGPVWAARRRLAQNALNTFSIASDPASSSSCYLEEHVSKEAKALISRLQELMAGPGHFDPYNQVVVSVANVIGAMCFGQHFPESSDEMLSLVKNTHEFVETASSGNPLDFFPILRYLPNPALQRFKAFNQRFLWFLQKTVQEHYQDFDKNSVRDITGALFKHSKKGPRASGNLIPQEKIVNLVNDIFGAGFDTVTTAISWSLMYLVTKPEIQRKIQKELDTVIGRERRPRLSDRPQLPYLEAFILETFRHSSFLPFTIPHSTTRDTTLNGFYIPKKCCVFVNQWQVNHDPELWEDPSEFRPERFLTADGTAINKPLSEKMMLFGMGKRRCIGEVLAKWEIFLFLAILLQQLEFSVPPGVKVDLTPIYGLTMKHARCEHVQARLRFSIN
Experimental: (§1) The regulatory bodies and pharmaceutical firms are quite concerned about CYP inhibition. Therefore, medicinal chemists often change the lead structure to decrease CYP inhibition. If left uncorrected, it can cause DDIs, enhanced drug concentration, and, thus, toxicity.
(§2) Using HLM as the enzyme source, the CYP inhibition potential was employed to assess the inhibitory effect of the TbB ligands on the CYP1A2, 2B6, 2C8, 2C9, 2C19, and 2D6 3A4 isoforms. Phenacetin (CYP1A2, […]), tolbutamide (CYP2C9, 20 mM), bupropion (CYP2B6, […]), mephenytoin (CYP2C19, […]), midazolam (CYP3A4, 5 mM), amodiaquine (CYP2C8, 0.02 mM), and dextromethorphan (CYP2D6, 5 mM) were used as probe substrates. The test substance included TbB ligand (final concentrations of […] for each) and HLMs (final concentration of 0.1 mg protein per mL), with or without 1.0 mM NADPH. The reaction was started by adding pre-incubated 25 μ L of NADPH into all wells and incubate at 37 °C for 10 min for 3A4 and 20 min for remaining all isoforms. The reaction was stopped by adding 100 μ L of stop solution to all wells. The samples were centrifuged at 4000 rpm for 10 min at 4 °C. Supernatant (100 μ L) was withdrawn, mixed with 200 μ L of water followed by LC-MS/MS analysis.

CYP2C19 = molecular target: T2, CYP2C19 (Homo sapiens, UniProt P33261); experiment: CYP inhibition assay in HLM, single concentration; assay type: biochemical; settings: human liver microsomes, probe S-Mephenytoin, n = 3, read-out: % Inhibition (CYP 2C19)
T2 construct: Using HLM as the enzyme source; from tissue; host or cells: human liver microsomes
Experimental: as §1, §2

CYP3A4 = molecular target: T3, CYP3A4 (Homo sapiens, UniProt P08684); experiment: CYP inhibition assay in HLM, single concentration; assay type: biochemical; settings: human liver microsomes, probe Midazolam, n = 3, read-out: % Inhibition (CYP 3A4)
T3 construct: Using HLM as the enzyme source; from tissue; host or cells: human liver microsomes
Experimental: as §1, §2

CYP3A4/5 = experiment: Single concentration Kobs assay (time-dependent inhibition) in HLM; assay type: biochemical, human; settings: for Kobs 3A4: HLM, 0.02 min^−1 indicates TD inhibition potential; for Kobs 3A4 / inhibition at 30 min: single concentration; for Single concentration Kobs assay (risk bin) 3A4: TD inhibition class from Kobs vs 0.02 min^−1 (Table 5 traffic lights); for inhibition at 30 min: human, human liver microsomes, significant if >50%, read-out: 3A4 R_Inh% (reversible inhibition)
Source text: CYP inhibition evaluation is typically performed by either IC50 at single-point or IC50 Shift or abbreviated assay such as the first-order inactivity rate constant (K obs ) at single concentration.
This method yielded good correlations between the percent inhibition at 10 or 25 μ M and kinact/KI. Evaluation of TD inhibition at single concentration has been implemented in several drug discovery programs. […] Therefore, in this study, a single K obs approach has been utilized to understand the TD inhibition potential of TbB ligands. Ideally, the inhibition of CYPs can be reversible or irreversible. The data obtained from single-concentration K obs studies were analyzed to understand the same. From the data presented in Table 4, the TbB ligands have values less than 50% for reversible inhibition (R_Inh). As the qualified % reversible inhibition is considered significant if >50%, no significant reversible inhibition is observed for TbB ligands. Knowledge about enzyme inactivation half-life (E½) is also equally important as it would provide insight into the TD inhibition of a compound. E½ can be used to bin the compounds as positive or negative TD inhibitors if the values are <28 or >28, respectively. The TbB ligand 223-2 is observed to be a weak positive TD inhibitor of 1A2 and is negative TD inhibitor to the other six CYP isoforms.
The time-dependent inhibition (TDI) potential of test compounds against CYP1A2, 2B6, 2C8, 2C9, 2C19, 2D6, 3A4/5 isoforms were determined using Human liver microsomes. Assay is performed in 96-deep well plate format (n = 1). Positive controls and DMSO as negative control in each assay. To obtain 100 μ M working stock solution, 1 μ L of blank DMSO/test/reference compounds to 100 μ L 1× DPBS buffer was added and labeled as dilution plate. To the primary incubation plate, 45 μ L of primary mix was dispensed to the desired wells containing 25 μ L HLM, 10 μ L MgCl2, and 10 μ L of NADPH working solutions. To the secondary incubation plate, 95 μ L of secondary mix was dispensed to the desired wells containing 20 μ L MgCl2, 20 μ L NADPH, 10 μ L respective substrates for CYP isoform working solutions and 45 μ L 1× DPBS buffer. Each of these four plates were labeled with their respective time points, i.e., 0, 6, 16, 32 min. Pre-incubated the dilution plate along with primary incubation plate at 37 °C for 15 min at 450 rpm. The reaction was carried out in triplicate. After the incubation, the reaction was quenched by adding 150 μ L ice cold stop solution to all the wells followed by centrifuging the samples at 4000 rpm, 4 °C for 15 min. The supernatant samples were then transferred into vials for LC-MS/MS analysis. The percent Reversible Inhibition was calculated using the following formula. %Reversibleinhibition=100−(PARtestcompt0×100)/(PARaverageDMSOt0)

T3 sequence (P08684 whole entry): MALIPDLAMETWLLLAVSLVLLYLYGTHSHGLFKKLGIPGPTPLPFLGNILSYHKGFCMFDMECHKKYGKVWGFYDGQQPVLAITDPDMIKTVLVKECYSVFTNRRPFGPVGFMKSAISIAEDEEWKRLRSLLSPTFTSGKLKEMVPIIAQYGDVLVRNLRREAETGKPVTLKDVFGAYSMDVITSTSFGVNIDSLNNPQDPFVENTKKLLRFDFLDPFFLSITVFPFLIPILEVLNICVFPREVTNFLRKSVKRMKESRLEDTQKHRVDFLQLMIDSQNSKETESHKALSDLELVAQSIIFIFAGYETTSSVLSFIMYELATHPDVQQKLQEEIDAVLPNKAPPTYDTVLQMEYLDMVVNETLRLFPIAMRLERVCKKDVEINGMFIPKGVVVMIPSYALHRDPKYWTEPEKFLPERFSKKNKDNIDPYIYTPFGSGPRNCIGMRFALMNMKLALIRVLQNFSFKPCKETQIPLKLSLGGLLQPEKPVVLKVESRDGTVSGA
T2 sequence (P33261 whole entry): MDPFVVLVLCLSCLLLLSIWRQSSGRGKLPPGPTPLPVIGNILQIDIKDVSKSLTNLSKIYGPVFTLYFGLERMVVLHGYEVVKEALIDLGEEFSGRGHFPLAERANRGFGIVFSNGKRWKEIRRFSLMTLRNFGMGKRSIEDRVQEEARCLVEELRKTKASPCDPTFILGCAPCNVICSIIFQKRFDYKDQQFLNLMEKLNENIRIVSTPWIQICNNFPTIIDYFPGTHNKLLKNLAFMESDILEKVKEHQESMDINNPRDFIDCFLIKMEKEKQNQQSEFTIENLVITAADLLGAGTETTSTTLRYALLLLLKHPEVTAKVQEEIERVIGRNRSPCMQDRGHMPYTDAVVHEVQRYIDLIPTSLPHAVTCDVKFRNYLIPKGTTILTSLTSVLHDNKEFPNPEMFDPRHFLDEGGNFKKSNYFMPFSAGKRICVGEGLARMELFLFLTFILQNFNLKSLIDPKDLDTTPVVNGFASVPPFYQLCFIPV

Row | inhibition at 20 min, 10 µM (CYP1A2) [%] | inhibition at 20 min, 10 µM (CYP2C19) [%] | inhibition at 10 min, 10 µM (CYP3A4) [%] | Single concentration Kobs assay (risk bin) 3A4 (CYP3A4/5) | inhibition at 30 min (CYP3A4/5) [%] | Structure (SMILES) | Kobs 3A4 (CYP3A4/5) [min⁻¹]
1 | 33 | -2 | -6 | negative inhibitor | < 50 | COc1cc(-c2nnn(-c3cc(OC)c(O)c(OC)c3)n2)cc(OC)c1O [223-2] | 0.006312
2 | 30 | 33 | 22 | negative inhibitor | < 50 | Oc1ccc(-c2nnn(-c3ccc(O)cc3)n2)cc1 [223-10] | 0.001719
3 | 40 | 84 | 96 | weak positive inhibitor | < 50 | Cc1cc(-c2nnn(-c3cc(C)c(O)c(C)c3)n2)cc(C)c1O [223-3] | 0.02143
